The values that follow are results of earlier work, collected in US9060937B2, “Pharmaceutical compositions” (priority 2006, dated 2015).

The structures appear in SMILES notation.

The conditions of this series: in water.

Consider `CCCCC1=NC2(CCCC2)C(=O)N1Cc1ccc(-c2ccccc2-c2nnn[nH]2)cc1` [irbesartan, Irbesartan], for which the solubility is less than 0.1 µg/mL.
